Laboratory results reported in ChEMBL document CHEMBL5465560, “Selectivity Literature for EUbOPEN Chemogenomic Library” (2024).

How the values were obtained:
[1] = molecular target: Protein kinase C eta type (Homo sapiens) (UniProt P24723); conditions: at 10 µM
[2] = molecular target: Hepatocyte growth factor receptor (Homo sapiens, UniProt P08581); experiment: (§1) Selectivity interaction (Ambit KINOMEscan and KiNATiv profiling in Jurkat cells) EUB0000090b MET; assay type: cell-based; conditions: at 1 µM
[3] = test system: Hepatocyte growth factor receptor (Homo sapiens), P08581 [Y1235D]; experiment: as §1; assay type: cell-based; conditions: at 1 µM
[4] = test system: Hepatocyte growth factor receptor (Homo sapiens), P08581 [M1250T]; experiment: as §1; assay type: cell-based; conditions: at 1 µM
[5] = molecular target: T1, Dual specificity mitogen-activated protein kinase kinase 7 (Homo sapiens) (UniProt O14733); experiment: Selectivity interaction (KinomeScan (DiscoverX)) EUB0001079a MAP2K7; conditions: at 1 µM
T1 sequence (whole entry): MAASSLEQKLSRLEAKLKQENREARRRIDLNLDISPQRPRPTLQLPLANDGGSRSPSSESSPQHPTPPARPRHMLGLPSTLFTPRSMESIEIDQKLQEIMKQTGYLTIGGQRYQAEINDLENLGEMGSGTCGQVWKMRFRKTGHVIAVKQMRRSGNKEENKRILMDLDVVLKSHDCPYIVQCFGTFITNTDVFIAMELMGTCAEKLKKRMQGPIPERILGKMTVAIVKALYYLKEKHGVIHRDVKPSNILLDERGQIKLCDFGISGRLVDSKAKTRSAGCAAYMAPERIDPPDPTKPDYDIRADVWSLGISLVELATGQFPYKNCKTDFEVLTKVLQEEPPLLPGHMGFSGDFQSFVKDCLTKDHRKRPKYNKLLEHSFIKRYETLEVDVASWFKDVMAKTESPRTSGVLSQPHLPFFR

[6] = molecular target: Activin receptor type-2B (Homo sapiens) (UniProt Q13705); experiment: Selectivity interaction (KinomeScan (DiscoverX)) EUB0000607a ACVR2B; conditions: at 10 µM
[7] = molecular target: Cyclin-dependent kinase 9 (Homo sapiens, UniProt P50750); experiment: Selectivity interaction (KinomeScan (DiscoverX)) EUB0000045b CDK9
[8] = molecular target: T2, Rhodopsin kinase GRK7 (Homo sapiens) (UniProt Q8WTQ7); experiment: Selectivity interaction (KinomeScan (DiscoverX)) EUB0000229b GRK7; conditions: at 10 µM
T2 sequence (whole entry): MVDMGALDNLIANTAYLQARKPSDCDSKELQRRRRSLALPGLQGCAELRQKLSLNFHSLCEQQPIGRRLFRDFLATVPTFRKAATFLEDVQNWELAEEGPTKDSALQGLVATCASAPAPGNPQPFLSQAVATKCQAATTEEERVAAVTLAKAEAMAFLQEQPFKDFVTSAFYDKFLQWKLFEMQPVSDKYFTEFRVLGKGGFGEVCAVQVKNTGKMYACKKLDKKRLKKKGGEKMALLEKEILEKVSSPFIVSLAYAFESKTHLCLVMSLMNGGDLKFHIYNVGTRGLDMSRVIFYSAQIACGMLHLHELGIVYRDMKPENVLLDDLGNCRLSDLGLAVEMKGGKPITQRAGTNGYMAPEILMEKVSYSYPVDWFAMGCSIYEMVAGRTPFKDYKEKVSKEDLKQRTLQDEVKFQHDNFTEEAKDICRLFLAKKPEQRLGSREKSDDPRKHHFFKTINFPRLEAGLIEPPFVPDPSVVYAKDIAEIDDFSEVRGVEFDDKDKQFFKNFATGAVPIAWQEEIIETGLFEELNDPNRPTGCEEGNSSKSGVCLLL

[9] = test system: Epidermal growth factor receptor (Homo sapiens), P00533 [G719S]; experiment: (§2) Selectivity interaction (KinomeScan (DiscoverX)) EUB0001049a EGFR; conditions: at 1 µM
[10] = test system: Epidermal growth factor receptor (Homo sapiens), P00533 [G719C]; experiment: as §2; conditions: at 1 µM
[11] = test system: Epidermal growth factor receptor (Homo sapiens), P00533 [T790M]; experiment: as §2; conditions: at 1 µM
[12] = molecular target: Serine/threonine-protein kinase 24 (Homo sapiens) (UniProt Q9Y6E0); experiment: Selectivity interaction (KinomeScan (DiscoverX)) EUB0000092b STK24; conditions: at 10 µM
[13] = molecular target: T3, Mitogen-activated protein kinase kinase kinase 13 (Homo sapiens) (UniProt O43283); experiment: Selectivity interaction (KinomeScan (DiscoverX)) EUB0000695a MAP3K13; conditions: at 100 nM
T3 sequence (whole entry): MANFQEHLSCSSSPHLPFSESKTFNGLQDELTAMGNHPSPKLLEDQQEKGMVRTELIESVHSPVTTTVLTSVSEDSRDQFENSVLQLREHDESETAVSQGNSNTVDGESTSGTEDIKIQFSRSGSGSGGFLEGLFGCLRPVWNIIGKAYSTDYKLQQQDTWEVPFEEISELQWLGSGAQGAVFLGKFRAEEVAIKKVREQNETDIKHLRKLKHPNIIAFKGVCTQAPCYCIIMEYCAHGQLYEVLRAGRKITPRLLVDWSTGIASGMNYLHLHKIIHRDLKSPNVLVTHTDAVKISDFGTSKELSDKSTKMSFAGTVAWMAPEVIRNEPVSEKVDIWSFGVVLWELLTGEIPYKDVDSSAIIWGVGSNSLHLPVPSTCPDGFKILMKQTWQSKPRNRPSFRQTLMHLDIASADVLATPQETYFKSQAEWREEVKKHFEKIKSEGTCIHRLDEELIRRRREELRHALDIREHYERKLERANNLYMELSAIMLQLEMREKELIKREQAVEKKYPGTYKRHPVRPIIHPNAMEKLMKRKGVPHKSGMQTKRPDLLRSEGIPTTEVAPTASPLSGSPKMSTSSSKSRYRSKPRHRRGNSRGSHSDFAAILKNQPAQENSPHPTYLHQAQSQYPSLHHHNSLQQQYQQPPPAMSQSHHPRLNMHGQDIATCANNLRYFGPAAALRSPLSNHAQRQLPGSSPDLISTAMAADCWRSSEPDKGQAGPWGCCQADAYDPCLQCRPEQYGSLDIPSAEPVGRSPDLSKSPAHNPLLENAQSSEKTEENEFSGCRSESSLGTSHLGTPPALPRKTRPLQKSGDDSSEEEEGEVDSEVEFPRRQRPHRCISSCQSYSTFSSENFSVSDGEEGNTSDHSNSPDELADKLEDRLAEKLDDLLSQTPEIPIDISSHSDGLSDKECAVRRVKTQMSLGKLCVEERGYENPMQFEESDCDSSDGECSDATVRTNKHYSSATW

Cyclin-dependent kinase 9, sequence (P50750 whole entry): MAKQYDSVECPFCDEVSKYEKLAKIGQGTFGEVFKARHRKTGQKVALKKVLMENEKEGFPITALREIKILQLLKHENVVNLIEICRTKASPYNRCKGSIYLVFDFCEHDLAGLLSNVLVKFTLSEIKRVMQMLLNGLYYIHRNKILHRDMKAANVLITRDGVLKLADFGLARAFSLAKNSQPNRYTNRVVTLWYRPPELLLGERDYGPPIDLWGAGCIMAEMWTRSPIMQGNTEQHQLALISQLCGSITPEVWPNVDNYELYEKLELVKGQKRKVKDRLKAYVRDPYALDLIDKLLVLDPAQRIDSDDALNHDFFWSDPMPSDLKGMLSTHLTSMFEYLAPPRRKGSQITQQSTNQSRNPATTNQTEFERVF
Epidermal growth factor receptor (Homo sapiens), P00533 [G719S], sequence (P00533 whole entry G719S): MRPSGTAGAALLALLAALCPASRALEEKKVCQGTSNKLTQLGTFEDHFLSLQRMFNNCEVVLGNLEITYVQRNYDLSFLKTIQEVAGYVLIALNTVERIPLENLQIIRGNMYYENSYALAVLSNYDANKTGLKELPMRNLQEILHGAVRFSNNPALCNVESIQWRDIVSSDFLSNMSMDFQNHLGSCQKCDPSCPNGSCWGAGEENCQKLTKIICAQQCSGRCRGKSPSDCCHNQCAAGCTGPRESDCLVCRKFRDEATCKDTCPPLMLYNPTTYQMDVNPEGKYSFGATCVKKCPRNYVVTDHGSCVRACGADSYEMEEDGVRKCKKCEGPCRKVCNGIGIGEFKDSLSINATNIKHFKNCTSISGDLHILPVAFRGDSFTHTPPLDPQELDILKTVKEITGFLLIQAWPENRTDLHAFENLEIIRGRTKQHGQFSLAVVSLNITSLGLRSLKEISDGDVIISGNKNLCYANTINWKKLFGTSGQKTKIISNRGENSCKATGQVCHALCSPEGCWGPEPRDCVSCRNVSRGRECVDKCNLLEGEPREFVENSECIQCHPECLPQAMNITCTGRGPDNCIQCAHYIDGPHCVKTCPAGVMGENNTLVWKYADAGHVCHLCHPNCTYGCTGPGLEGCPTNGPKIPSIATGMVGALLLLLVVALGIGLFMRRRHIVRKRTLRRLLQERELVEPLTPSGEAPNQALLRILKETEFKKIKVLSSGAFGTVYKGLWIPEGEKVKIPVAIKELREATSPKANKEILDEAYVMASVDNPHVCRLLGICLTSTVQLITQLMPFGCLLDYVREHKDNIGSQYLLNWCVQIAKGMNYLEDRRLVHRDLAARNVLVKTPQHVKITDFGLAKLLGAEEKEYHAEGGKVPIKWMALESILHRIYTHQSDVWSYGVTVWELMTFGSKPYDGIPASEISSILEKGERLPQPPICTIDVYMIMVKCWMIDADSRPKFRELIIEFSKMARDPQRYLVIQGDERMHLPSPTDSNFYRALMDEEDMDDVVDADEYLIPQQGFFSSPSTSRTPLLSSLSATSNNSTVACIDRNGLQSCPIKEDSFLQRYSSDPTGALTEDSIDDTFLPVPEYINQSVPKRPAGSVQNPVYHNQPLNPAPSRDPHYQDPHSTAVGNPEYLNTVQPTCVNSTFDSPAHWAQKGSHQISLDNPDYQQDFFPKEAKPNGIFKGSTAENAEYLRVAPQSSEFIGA
Serine/threonine-protein kinase 24 (Homo sapiens), sequence (Q9Y6E0 whole entry, looked up): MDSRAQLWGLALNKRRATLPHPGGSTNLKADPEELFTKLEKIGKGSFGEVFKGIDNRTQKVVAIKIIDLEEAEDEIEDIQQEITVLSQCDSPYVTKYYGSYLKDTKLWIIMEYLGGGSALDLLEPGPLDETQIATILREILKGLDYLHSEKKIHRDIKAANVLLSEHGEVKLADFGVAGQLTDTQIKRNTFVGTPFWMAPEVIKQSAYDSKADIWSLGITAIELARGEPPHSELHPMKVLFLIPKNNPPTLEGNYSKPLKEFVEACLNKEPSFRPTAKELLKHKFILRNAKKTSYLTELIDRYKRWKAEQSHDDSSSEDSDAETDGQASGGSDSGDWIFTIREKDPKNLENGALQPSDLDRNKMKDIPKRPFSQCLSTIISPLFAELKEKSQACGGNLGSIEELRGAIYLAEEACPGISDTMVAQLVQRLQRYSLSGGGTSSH
Activin receptor type-2B (Homo sapiens), sequence (Q13705 whole entry): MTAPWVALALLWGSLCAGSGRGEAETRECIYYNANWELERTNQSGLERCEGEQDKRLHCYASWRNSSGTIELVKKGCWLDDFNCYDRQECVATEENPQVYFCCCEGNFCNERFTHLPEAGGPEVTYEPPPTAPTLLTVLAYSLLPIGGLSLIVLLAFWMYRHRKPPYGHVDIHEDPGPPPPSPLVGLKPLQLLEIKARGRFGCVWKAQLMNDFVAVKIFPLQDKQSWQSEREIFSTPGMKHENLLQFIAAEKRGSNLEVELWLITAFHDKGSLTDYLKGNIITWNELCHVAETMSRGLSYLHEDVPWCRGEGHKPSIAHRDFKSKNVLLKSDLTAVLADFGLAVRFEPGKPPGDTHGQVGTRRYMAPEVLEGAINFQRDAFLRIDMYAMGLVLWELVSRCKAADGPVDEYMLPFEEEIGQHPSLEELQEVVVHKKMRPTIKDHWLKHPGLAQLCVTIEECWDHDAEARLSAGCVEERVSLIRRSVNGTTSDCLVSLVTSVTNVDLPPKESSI
Hepatocyte growth factor receptor (Homo sapiens), P08581 [Y1235D], sequence (P08581 whole entry Y1235D): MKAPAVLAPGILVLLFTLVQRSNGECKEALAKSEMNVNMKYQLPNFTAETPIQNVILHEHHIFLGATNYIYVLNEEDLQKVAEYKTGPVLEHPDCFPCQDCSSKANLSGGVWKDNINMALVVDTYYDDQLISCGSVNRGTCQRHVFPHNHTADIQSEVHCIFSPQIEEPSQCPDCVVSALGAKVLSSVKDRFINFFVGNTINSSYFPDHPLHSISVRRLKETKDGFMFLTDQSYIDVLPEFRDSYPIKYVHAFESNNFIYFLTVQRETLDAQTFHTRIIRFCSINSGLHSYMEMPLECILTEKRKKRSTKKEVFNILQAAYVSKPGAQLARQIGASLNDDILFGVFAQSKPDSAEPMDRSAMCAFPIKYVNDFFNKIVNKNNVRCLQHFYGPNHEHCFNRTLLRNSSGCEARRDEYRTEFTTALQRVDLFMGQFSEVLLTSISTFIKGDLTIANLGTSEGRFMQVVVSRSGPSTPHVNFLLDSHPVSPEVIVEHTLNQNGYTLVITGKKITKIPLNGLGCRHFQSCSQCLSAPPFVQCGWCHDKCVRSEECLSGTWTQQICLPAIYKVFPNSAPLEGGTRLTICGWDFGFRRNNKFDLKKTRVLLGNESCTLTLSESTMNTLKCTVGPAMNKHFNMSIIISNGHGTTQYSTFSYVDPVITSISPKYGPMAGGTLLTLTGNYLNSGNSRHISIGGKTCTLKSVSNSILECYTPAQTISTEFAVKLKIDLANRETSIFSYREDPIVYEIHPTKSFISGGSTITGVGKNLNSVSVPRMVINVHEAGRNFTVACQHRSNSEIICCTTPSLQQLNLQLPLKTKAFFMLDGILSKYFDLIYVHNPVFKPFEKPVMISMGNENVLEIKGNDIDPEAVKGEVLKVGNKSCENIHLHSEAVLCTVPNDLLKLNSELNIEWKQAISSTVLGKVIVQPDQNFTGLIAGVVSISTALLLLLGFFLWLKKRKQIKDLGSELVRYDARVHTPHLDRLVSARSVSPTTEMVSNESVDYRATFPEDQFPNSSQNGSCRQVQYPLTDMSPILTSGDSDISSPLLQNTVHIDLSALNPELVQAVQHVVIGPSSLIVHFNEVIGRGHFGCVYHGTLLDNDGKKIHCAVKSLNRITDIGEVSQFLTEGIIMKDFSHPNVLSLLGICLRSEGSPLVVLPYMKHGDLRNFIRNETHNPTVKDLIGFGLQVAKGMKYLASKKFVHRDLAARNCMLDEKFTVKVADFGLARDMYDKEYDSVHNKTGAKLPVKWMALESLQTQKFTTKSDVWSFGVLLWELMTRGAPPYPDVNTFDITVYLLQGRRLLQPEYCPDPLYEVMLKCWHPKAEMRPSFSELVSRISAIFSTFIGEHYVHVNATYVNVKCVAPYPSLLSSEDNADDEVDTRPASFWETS
Protein kinase C eta type (Homo sapiens), sequence (P24723 whole entry): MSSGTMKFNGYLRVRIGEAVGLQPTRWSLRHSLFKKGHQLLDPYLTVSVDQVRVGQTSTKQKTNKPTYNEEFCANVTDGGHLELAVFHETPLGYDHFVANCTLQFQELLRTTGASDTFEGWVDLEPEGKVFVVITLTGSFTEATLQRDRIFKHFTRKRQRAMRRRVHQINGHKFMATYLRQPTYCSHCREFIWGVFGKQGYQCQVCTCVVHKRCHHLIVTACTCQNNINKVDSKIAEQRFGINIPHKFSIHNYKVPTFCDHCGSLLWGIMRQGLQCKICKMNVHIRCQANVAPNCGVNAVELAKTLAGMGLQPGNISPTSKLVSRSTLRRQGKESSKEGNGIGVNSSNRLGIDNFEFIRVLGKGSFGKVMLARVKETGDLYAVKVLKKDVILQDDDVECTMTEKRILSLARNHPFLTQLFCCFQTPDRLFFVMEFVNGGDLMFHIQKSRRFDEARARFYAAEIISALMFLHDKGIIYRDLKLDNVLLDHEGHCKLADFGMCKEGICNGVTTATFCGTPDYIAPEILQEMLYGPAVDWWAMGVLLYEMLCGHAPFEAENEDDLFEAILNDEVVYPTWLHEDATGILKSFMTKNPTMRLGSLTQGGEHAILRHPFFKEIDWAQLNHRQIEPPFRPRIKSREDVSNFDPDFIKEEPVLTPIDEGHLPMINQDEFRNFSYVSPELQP

For CCN(CC)CCCCNc1ncc2cc(-c3cc(OC)cc(OC)c3)c(NC(=O)NC(C)(C)C)nc2n1, the % of control [1] was 100%.

In the case of CN(C)C/C=C/C(=O)Nc1ccc(C(=O)N2CCCC(Nc3ncc(Cl)c(-c4c[nH]c5ccccc45)n3)C2)cc1 (centres undefined), the % of control [2] is reported as 84%, the % of control [3] is reported as 69% and the % of control [4] is reported as 69%.

For Nc1cnc(N2CCc3cc(S(=O)(=O)Nc4c(F)cc(Cl)cc4F)cc(N4CCCC4=O)c32)nc1 [TP-020n], the % of control [5] was 100%.

With CNC(=O)Nc1ccc(-c2nc(N3CC4CCC(C3)O4)c3cnn(C4CCC5(CC4)OCCO5)c3n2)cc1 the % of control [6] was 77%.

Molecule C=CC(=O)Nc1cc(-n2c(=O)ccc3cnc4ccc(-c5ccc(NS(C)(=O)=O)cc5)cc4c32)ccc1C has a % of control ([7]; at 1 µM) of 100% and a % of control ([7]; at 10 µM) of 95%.

COc1cc(N(C)c2ccnc3ccc(C(F)(F)F)cc23)cc(OC)c1OC showed a % binding [8] of 69%.

For COc1cc(Nc2nc(C)cc(-c3cnn4nc(OC)ccc34)n2)cc(C(F)(F)F)c1, the % of control [9] was 94%, the % of control [10] was 100% and the % of control [11] was 93%.

Molecule CCC(=O)N1CCN(c2ccc(-n3c(=O)ccc4cnc5ccc(-c6cnc7ccccc7c6)cc5c43)cc2C(F)(F)F)CC1 has a % of control [12] of 100%.

For Cc1cc(F)c(C(=O)Nc2cccc(-c3nncn3C(C)C)n2)cc1-n1cnc(C2CC2)c1, the % of control [13] was 97%.
